One data set in a line: in vitro. Conditions: rat.
The target of another data set is EP4 receptor (Homo sapiens, UniProt P35408). In words: Schild regression analysis for EP4 receptor. The format is cell-based. To be noted: for Kb: read-out: KB (μM) EP4, from Schild regression analysis. An excerpt: (§1) Information on the modality of antagonism can be obtained by performing Schild regression analysis characterized by: log (dr−1)=log XB−log KB. In the equation, dose ratio (dr)=fold shift in EC50, XB=[antagonist], KB=equilibrium dissociation constant for the antagonist-receptor complex. […] Thus, a lower KB value indicates a higher inhibitory potency.

The next data set relates to C6G cells. In words: CellTiter-Glo luminescent cell viability assay (cytotoxicity).
Another data set addresses EP2 receptor (Homo sapiens, UniProt P43116). In words: Schild regression of PGE2-induced EP2 activation in C6G-EP2 cells. The format is cell-based. Also noted: expressed in transfected cells; host or cells: C6G-EP2 cells. As for the experimental part:
as §1
To perform the Schild regression, C6G-EP2 cells were incubated first with vehicle, 0.01, 0.1 or 1 μM of test compound for 5 minutes, then with increasing concentrations of PGE2 to activate the EP2 receptor.

The mark [1] stands for this setting: C6G-EP2 cells, PGE2 as agonist, read-out: KB (nM) EP2, from Schild regression analysis.
Setting [2] is: additional compounds tables, read-out: EP2 KB.

Like-named read-outs stand apart in the source and are kept apart here.

Chain of EP2 receptor (P43116 whole entry): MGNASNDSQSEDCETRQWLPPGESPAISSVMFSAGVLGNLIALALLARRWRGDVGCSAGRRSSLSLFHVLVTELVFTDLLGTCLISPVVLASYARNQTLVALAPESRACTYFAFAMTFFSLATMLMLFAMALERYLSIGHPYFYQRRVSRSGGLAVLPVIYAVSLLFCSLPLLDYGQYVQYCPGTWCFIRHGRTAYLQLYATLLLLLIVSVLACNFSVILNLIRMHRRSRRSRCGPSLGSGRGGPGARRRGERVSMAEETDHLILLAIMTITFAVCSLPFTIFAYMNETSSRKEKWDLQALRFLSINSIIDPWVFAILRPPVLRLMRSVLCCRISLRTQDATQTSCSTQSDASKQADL
Chain of EP4 receptor (P35408 whole entry): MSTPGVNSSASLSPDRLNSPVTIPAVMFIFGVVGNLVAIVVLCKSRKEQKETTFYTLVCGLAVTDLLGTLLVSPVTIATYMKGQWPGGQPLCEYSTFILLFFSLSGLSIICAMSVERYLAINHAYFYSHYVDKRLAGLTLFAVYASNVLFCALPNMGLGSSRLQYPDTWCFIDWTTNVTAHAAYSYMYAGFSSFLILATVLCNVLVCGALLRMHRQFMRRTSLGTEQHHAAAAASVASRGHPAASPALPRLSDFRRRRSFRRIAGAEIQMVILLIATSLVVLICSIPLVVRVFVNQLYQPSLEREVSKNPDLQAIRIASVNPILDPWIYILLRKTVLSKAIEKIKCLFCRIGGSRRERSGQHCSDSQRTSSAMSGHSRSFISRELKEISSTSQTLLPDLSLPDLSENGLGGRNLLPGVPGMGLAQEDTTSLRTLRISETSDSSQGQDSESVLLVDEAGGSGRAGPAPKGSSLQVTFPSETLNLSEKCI

For the molecule `COc1cc(C=CC(=O)NCCn2c(C)nc3ccccc32)cc(OC)c1OC` [1a, N-(2-(2-methyl-1H-benzo[d]imidazol-1-yl)ethyl)-3-(3,4,5-trimethoxyphenyl)acrylamide], in “in vitro” (C6G cells), the CC50 at 48 h stood at 360 µM. Further, on EP4 receptor, the “Selective index, KB EP4/KB EP2” value turned out to be 39 and the Kb stood at 13.7 µM. In addition, the “Therapeutic index (in vitro), CC50/KB for EP2” value (from here on “Therapeutic index (in vitro)”) in the data set with C6G cells is on record as 1,030. On EP2 receptor (setting [1]), the Kb stood at 348 nM.
For `COc1ccc(C=CC(=O)NCCn2c(C)nc3ccccc32)cc1OC` [1b, 3-(3,4-dimethoxyphenyl)-N-(2-(2-methyl-1H-benzo[d]imidazol-1-yl)ethyl)acrylamide] the same measures were 448 µM, 14, 13.3 µM, 473 and 947 nM.
The matching figures for `Cc1nc2ccccc2n1CCNC(=O)C=Cc1ccc2c(c1)OCO2` [1c, 3-(benzo[d][1,3]dioxol-5-yl)-N-(2-(2-methyl-1H-benzo[d]imidazol-1-yl)ethyl)acrylamide]: 325 µM, 10, 15.3 µM, 219 and 1490 nM.
The matching figures for `COc1cc(C=CC(=O)NCCn2cnc3ccccc32)cc(OC)c1OC` [1d, N-(2-(1H-benzo[d]imidazol-1-yl)ethyl)-3-(3,4,5-trimethoxyphenyl)acrylamide]: 311 µM, 6, 13.9 µM, 123 and 2520 nM.
`COc1ccc(C=CC(=O)NCCn2c(C)cc3cc(F)ccc32)cc1OC` [1g, 3-(3,4-dimethoxyphenyl)-N-(2-(5-fluoro-2-methyl-1H-indol-1-yl)ethyl)acrylamide] had a CC50 at 48 h in “in vitro” (C6G cells) of 264 µM. Besides, on EP4 receptor, the “Selective index, KB EP4/KB EP2” value is reported as 77 and the Kb came out at 1.7 µM. In the data set on C6G cells, the “Therapeutic index (in vitro)” value was 11,900. The Kb on EP2 receptor (setting [1]) turned out to be 22.2 nM.
As for `COc1ccc(/C=C/C(=O)NCCn2c(C(F)(F)F)cc3ccccc32)cc1OC` [1i], on EP4 receptor, the “Selective index, KB EP4/KB EP2” value is recorded as 381 and the Kb came to 22.4 µM. In the data set on C6G cells, the “Therapeutic index (in vitro)” value was 3,550. In the data set on C6G cells (read-out: CC50, half maximal cytotoxic concentration, C6G cells after 48 h incubation), the CC50 was found to be 209 µM. For the same molecule, on EP2 receptor (setting [1]), the Kb came out at 58.8 nM.
Molecule `COc1cc(C=CC(=O)NCCCn2c(C)cc3ccccc32)cc(OC)c1OC` [1j, N-(3-(2-methyl-1H-indol-1-yl)propyl)-3-(3,4,5-trimethoxyphenyl)acrylamide] came in with a CC50 at 48 h in “in vitro” (C6G cells) of 182 µM. Further, on EP4 receptor, the “Selective index, KB EP4/KB EP2” value amounted to 3 and the Kb came to 5.7 µM. In addition, the “Therapeutic index (in vitro)” value in the data set on C6G cells was 98. The Kb on EP2 receptor (setting [1]) was determined as 1860 nM.
For `COc1cc(C=CC(=O)N(C)CCn2c(C)cc3ccccc32)cc(OC)c1OC` [1k, N-methyl-N-(2-(2-methyl-1H-indol-1-yl)ethyl)-3-(3,4,5-trimethoxyphenyl)acrylamide] the same measures were 278 µM, 90, 16.6 µM, 1,500 and 185 nM.
`COc1cc(CCC(=O)NCCn2c(C)cc3ccccc32)cc(OC)c1OC` [1l, N-(2-(2-methyl-1H-indol-1-yl)ethyl)-3-(3,4,5-trimethoxyphenyl)propanamide] had a CC50 at 48 h in “in vitro” (C6G cells) of 397 µM. For the same molecule, at EP4 receptor, the Kb came out at 18.1 µM.
For the molecule `COc1ccc(C=CC(=O)NCCn2c(C)cc3ccccc32)cc1` [1m, 3-(4-methoxyphenyl)-N-(2-(2-methyl-1H-indol-1-yl)ethyl)acrylamide], the CC50 at 48 h in the data set “in vitro” (C6G cells) was found to be 3090 µM. In addition, at EP4 receptor, the “Selective index, KB EP4/KB EP2” value is on record as 484 and the Kb amounted to 8 µM. Besides, the “Therapeutic index (in vitro)” value in the data set on C6G cells is on record as 187,000. Further, the Kb on EP2 receptor (setting [1]) stood at 16.5 nM.
The matching figures for `COc1ccc(C=CC(=O)NCCn2c(C)cc3cc(F)ccc32)cc1` [1n, N-(2-(5-fluoro-2-methyl-1H-indol-1-yl)ethyl)-3-(4-methoxyphenyl)acrylamide]: 653 µM, 277, 11.7 µM, 15,400 and 42.4 nM.
Take `Cc1cc2ccccc2n1CCNC(=O)C=Cc1ccc2c(c1)OCO2` [1o, 3-(benzo[d][1,3]dioxol-5-yl)-N-(2-(2-methyl-1H-indol-1-yl)ethyl)acrylamide]: the CC50 at 48 h in the data set “in vitro” (C6G cells) was 146 µM. On EP4 receptor, the “Selective index, KB EP4/KB EP2” value is given as 629 and the Kb turned out to be 11.4 µM. The “Therapeutic index (in vitro)” value in the data set on C6G cells is 8,070. Also, on EP2 receptor (setting [1]), the Kb came out at 18.1 nM.
For `CCOc1ccc(C=CC(=O)NCCn2c(C)cc3ccccc32)cc1OC` [1p, 3-(4-ethoxy-3-methoxyphenyl)-N-(2-(2-methyl-1H-indol-1-yl)ethyl)acrylamide] the same measures were 517 µM, 268, 1.9 µM, 71,800 and 7.2 nM.
For `Cc1cc2ccccc2n1CCNC(=O)C=Cc1ccc(CC(C)C)cc1` [1q, 3-(4-isobutylphenyl)-N-(2-(2-methyl-1H-indol-1-yl)ethyl)acrylamide] the same measures were 199 µM, 367, 30.2 µM, 2,420 and 82.4 nM.
For `Cc1cc2ccccc2n1CCNC(=O)C=Cc1ccc(F)c(F)c1` [1r, 3-(3,4-difluorophenyl)-N-(2-(2-methyl-1H-indol-1-yl)ethyl)acrylamide] the same measures were 89 µM, 2,800, 10.6 µM, 23,400 and 3.8 nM.
In “in vitro” (C6G cells), `Cc1cc2cc(F)ccc2n1CCNC(=O)C=Cc1ccc(F)c(F)c1` [1s, 3-(3,4-difluorophenyl)-N-(2-(5-fluoro-2-methyl-1H-indol-1-yl)ethyl)acrylamide] returned a CC50 at 48 h of 684 µM. For the same molecule, on EP4 receptor, the “Selective index, KB EP4/KB EP2” value is reported as 1,990 and the Kb turned out to be 13.9 µM. In addition, the “Therapeutic index (in vitro)” value with C6G cells is on record as 97,700. The Kb at EP2 receptor (setting [1]) worked out at 7 nM.
For `Cc1cc2ccccc2n1CCNC(=O)C=Cc1cc(F)c(F)c(F)c1` [1t, N-(2-(2-methyl-1H-indol-1-yl)ethyl)-3-(3,4,5-trifluorophenyl)acrylamide] the same measures were 46 µM, 921, 17.2 µM, 2,460 and 18.7 nM.
The matching figures for `Cc1cc2cc(F)ccc2n1CCNC(=O)C=Cc1cc(F)c(F)c(F)c1` [1u, N-(2-(5-fluoro-2-methyl-1H-indol-1-yl)ethyl)-3-(3,4,5-trifluorophenyl)acrylamide]: 62 µM, 715, 19.9 µM, 2,230 and 27.8 nM.
`CCOc1c(Br)cc(CCC(=O)NCCn2c(C)cc3ccccc32)cc1OC` [1v] had a Schild plot slope at EP2 receptor (C6G-EP2 cells, PGE2) of 1.2. Also, the Kb at EP2 receptor (setting [1]) was 1.8 nM. The “Modality of antagonism on EP2 receptor” value on EP2 receptor (Schild plots) is given as “competitive antagonism”.
For the molecule `Cc1cc(/C=C/C(=O)NCCn2c(C(F)(F)F)cc3ccccc32)cc(C)c1F` [TG7-13], the Kb at EP2 receptor (setting [2]) is 288 nM.
Same read-out and setting: with `COc1cc(C(=O)NCCn2c(C)cc3ccccc32)cc(OC)c1OC` [TG7-112-1] the figure was over 1000 nM; with `Cc1cc2ccccc2n1CCNC(=O)c1nc2cc(F)ccc2[nH]1` [TG7-118], 128 nM.
Still for that read-out and setting: with `Cc1cc2ccccc2n1CCNC(=O)C1CCC(=O)N1` (centres unmarked) [TG7-120] the figure was over 1000 nM; with `COc1cc(/C=C/C(=O)NCCc2c(C)oc3ccccc23)cc(OC)c1OC` [TG7-122], 217 nM; with `Cc1cc2ccccc2n1CCNC(=O)c1c[nH]c2c(F)cccc2c1=O` [TG7-131], 630 nM.
Still for that read-out and setting: in the case of `Cc1cc2ccccc2n1CCNC(=O)c1ccc(C(N)=O)cc1` [TG7-140] it was 150 nM; in that of `Cc1cc2ccccc2n1CCNC(=O)c1ccc(N2CCN(C)CC2)c(F)c1` [TG7-141, 3-fluoro-N-(2-(2-methyl-1H-indol-1-yl)ethyl)-4-(4-methylpiperazin-1-yl)benzamide], 51.1 nM; in that of `Cc1cc2ccccc2n1CCNC(=O)c1ccc(N(C)C)cc1` [TG7-142, 4-(dimethylamino)-N-(2-(2-methyl-1H-indol-1-yl)ethyl)benzamide], 10.4 nM.
On to `Cc1cc2ccccc2n1CCNC(=O)c1ccc(N)cc1` [TG7-143], for which, at EP2 receptor (setting [2]), the Kb came to 207 nM.
Same read-out and setting: with `CC(=O)Nc1ccc(C(=O)NCCc2c(C)[nH]c3ccccc23)cc1` [TG7-146] the figure was 138 nM; with `Cc1cc2ccccc2n1CCNC(=O)c1ccc(C#N)cc1` [TG7-147], 139 nM; with `Cc1cc2ccccc2n1CCNC(=O)c1cnc2ccc(F)cc2c1O` [TG7-148], 174 nM.
In the case of `COc1cccc2c1C(=O)c1c(O)c3c(c(O)c1C2=O)C[C@@](O)(C(=O)CO)C[C@@H]3O[C@H]1C[C@H](N)[C@H](O)[C@H](C)O1` [doxorubicin, reference compound], the CC50 at 48 h in “in vitro” came out at 0.2 µM.

These data come from US10040783B2 (Emory University, priority 2011, dated 2018).
